Assay results: patent US20120232062A1, “AZAINDAZOLES TO TREAT FLAVIVIRIDAE VIRUS INFECTION” (EIGER BIOPHARMACEUTICALS, INC., priority 2009, published 2012)

The molecules below were run on HCV genotype 1b (assay: HCV 1b replicon luciferase assay). Conditions: Hepatitis C virus, Huh-7, 48 h, Table 1; Huh7 HCV 1b replicon, luciferase reporter, 48 hours; read-out: 1b EC50.
Assay type: cell-based
Description: A suitable 1b HCV RNA replicon assay uses the Huh7 cell line which contains an HCV 1b RNA replicon with a stable luciferase (LUC) reporter. This construct contains modifications that make the cell line more robust and provides stable LUC expression for antiviral screening. The LUC reporter is used as an indirect measure of HCV replication. The activity of the LUC reporter is directly proportional to HCV RNA levels and positive control antiviral compounds behave comparably using LUC endpoints. […]
Fresh growth medium is prepared just before use. The container used in the procedure is a 10 cm diameter culture dish. HCV replicon reporter cell lines are used. Prepare complete medium: add FBS and appropriate additives as described in “Culture Media”, below. Pre-warm the medium in a 37° C. thermostat water bath. Remove the dish from a 37° C. CO2 incubator. Check the cell name and complete medium and passage number marked on the dish. Aspirate the medium carefully and add 1 ml PBS to rinse the cells. Remove and discard the solution and add 1 ml of 0.25% Trypsin/0.02% EDTA. Rinse the cells with the added Trypsin/EDTA to ensure all the cells have been rinsed. Remove the Trypsin/EDTA with a vacuum pump and incubate at 37° C. for 3-5 minutes. Examine the cell morphology under an inverted microscope to confirm that a single cell suspension is clearly visible. Add 3 ml of complete medium to the dish and suspend the cell by gentle pipetting. Count the cell numbers with a hematometer. Adjust cell density to 100 k/ml by adding appropriate volume of the complete medium. Add 100 μl of cell suspension to each well of a 96-well white plate; the cell density is thus 10 k per well. Mark the plate with cell name, passage number, seeding density, date and the name of the operator. Place the 96-well assay plate in 37° C. 5% CO2 incubator for 24 hours.
Compounds are prepared or provided at 25 mM in 100% DMSO. This is the compound stock solution. The dilution procedure should be performed in a cell culture hood. Dispense the stock solution into the second column of a 96-well plate. Prepare 9-step (10 concentrations total), 5-fold serial dilutions by transferring 10 μA of the compound into the next well containing 40 μA of DMSO. Repeat for all compounds. Aspirate 2 μl of the above compound solution from each well and add into 198 μl complete media using a 12-channel pipetter to obtain the 10-fold concentration compound solution with 1% DMSO, mix well.
Remove the 96-well assay plate from the 37° C./5% CO2 incubator, examine the cell morphology under an inverted microscope. In a cell culture hood, add 10 μl of the 10× concentration compounds solution into each well on the 96-well assay plate. All compound's dose responses are done in duplicate. The starting final concentration of the compounds is 25 μM, and DMSO final concentration 0.1%. Mark the plate with compound code(s) and concentrations. Place the 96-well assay plate into CO2 incubator for 48 hours. Add 30 μl of Stead-Glo Luciferase System (Promega) reagent to each well and mix by gentle shaking on a plate shaker for 5 minutes to allow throughout cell lysis. Measure the luminescence with Envision (Perkin Elmer) with an integration time of 2 seconds. Record and analyze the data.
The cell culture media is DMEM complete: DMEM (Life Technologies #41965-039) supplemented with 10% FCS, 2 mM Glutamin (Life Technologies #25030-024), Penicillin (100 IU/ml)/Streptomycin (100 μg/ml) (Life Technologies #15140-114) and 1× nonessential amino acids (Life Technologies #11140-035). G418 (“Geneticin”, Life Technologies): concentrations are given as weight per volume of the original substance. Specific activity of a typical batch is ca. 700 μg/mg as stated by the manufacturer. […] Therefore each new batch of G418 should be tested individually e.g. in an electroporation experiment using different selection conditions (0.2-1 mg/ml).

Structure (SMILES) | EC50 [µM]
CCn1nc(C(=O)NC2CCNCC2)c2ccc(N3CCCCCC3)nc21 [compound 856] | 3.7
CC(C)n1nc(C(=O)NC2CCNCC2)c2ccc(N3CCCCCC3)nc21 [compound 857] | 3.1
CCCn1nc(C(=O)NC2CCNCC2)c2ccc(N3CCCCCC3)nc21 [compound 858] | 3.3
CCC(CC)n1nc(C(=O)NC2CCNCC2)c2ccc(N3CCCCCC3)nc21 [compound 859] | 2.8
CCN(CC)c1ccc2c(C(=O)NC3CCNCC3)nn(C)c2n1 [compound 860] | 2.9
Cn1nc(C(=O)NC2CCNCC2)c2ccc(N3CCCCC3)nc21 [compound 861] | 7.3
Cn1nc(C(=O)NC2CCNCC2)c2ccc(NC3CCCCC3)nc21 [compound 862] | 2.6
Cn1nc(C(=O)NC2CCNCC2)c2ccc(NCC3CCCCC3)nc21 [compound 863] | 1.3
Cn1nc(C(=O)NC2CCNCC2)c2ccc(NC3CCCCCC3)nc21 [compound 866] | 1.1
CN(CC1CCCCC1)c1ccc2c(C(=O)NC3CCNCC3)nn(C)c2n1 [compound 867] | 0.934
Cn1nc(C(=O)NC2CCNCC2)c2ccc(N3CCC(Cc4ccccc4)CC3)nc21 [compound 868] | 2.4
Cn1nc(C(=O)NCC2CCCNC2)c2ccc(N3CCCCCC3)nc21 (centres unmarked) [compound 872] | 8.1
Cn1nc(C(=O)NC2CCNCC2)c2ccc(OC3CCCCCC3)nc21 [compound 873] | 4.7
CC1CCC(Oc2ccc3c(C(=O)NC4CCNCC4)nn(C)c3n2)C(C(C)C)C1 (centres unmarked) [compound 874] | 1.7
O=C(NC1CCNCC1)c1nn2c3nc(ccc13)OC/C=C\CCCCC2 [compound 876] | 7.5
O=C(NC1CCNCC1)c1nn2c3nc(ccc13)OC/C=C/CCCCC2 [compound 877] | 3.3
CC1CCCCC1Oc1ccc2c(C(=O)NC3CCNCC3)nn(C)c2n1 (centres unmarked) [compound 878] | 2.8
CC1CCC(Oc2ccc3c(C(=O)NC4CCNCC4)nn(C)c3n2)CC1 (centres unmarked) [compound 879] | 3.9
Cn1nc(C(=O)NC2CCNCC2)c2ccc(NC3CCCCCCC3)nc21 [compound 885] | 0.889
Cn1nc(C(=O)NC2CCNCC2)c2ccc(N3CCCCCCC3)nc21 [compound 886] | 0.798

Structure (SMILES) | EC50 [µM]
CN(c1ccc2c(C(=O)NC3CCNCC3)nn(C)c2n1)C1CCCCCC1 [compound 891] | 1.1
CN(c1ccc2c(C(=O)NC3CCNCC3)nn(C)c2n1)C1CCCCC1 [compound 892] | 1.5
CN(c1ccc2c(C(=O)NC3CCNCC3)nn(C)c2n1)C1CCCCCCC1 [compound 893] | 1.1
Cn1nc(CN[C@H]2CCNC2)c2ccc(N3CCCCCC3)nc21 [compound 908] | 8.7
CC1CC(NCc2nn(C)c3nc(N4CCCCCC4)ccc23)CCN1 (centres unmarked) [compound 909] | 4
CN1C2CCC1CC(NCc1nn(C)c3nc(N4CCCCCC4)ccc13)C2 (centres unmarked) [compound 910] | 3.9
Cn1nc(C(=O)NC2CCNCC2)c2ccc(OC3CCCC3)nc21 [compound 912] | 6.9
CCC(CC)Oc1ccc2c(NC(=O)C3CCCNC3)nn(C)c2n1 (centres unmarked) [compound 938] | 8.2
CCC(CC)Oc1ccc2c(NC(=O)c3ccncc3)nn(C)c2n1 [compound 939] | 4.7
CCC(CC)Oc1ccc2c(NC(=O)c3ccccc3)nn(C)c2n1 [compound 942] | 8.6
C[C@@H]1CCC[C@H]1Oc1ccc2c(C(=O)NC3CCNCC3)nn(C)c2n1 [compound 945] | 2.6
CC1CCC(Oc2ccc3c(C(=O)NC4CCNCC4)nn(C)c3n2)C1 (centres unmarked) [compound 946] | 3.7
CCC(CC)Oc1ccc2c(NC(=O)[C@H]3CC[C@H](N)CC3)nn(C)c2n1 [compound 949] | 5.7
CCC(CC)Oc1ccc2c(NC(=O)C3CC(C)(C)NC(C)(C)C3)nn(C)c2n1 [compound 950] | 7.9
CCC(CC)Oc1ccc2c(NC(=O)[C@H]3CC[C@@H](N)CC3)nn(C)c2n1 [compound 951] | 7.8
CCC(CC)Oc1ccc2c(NC(=O)CC3CCCNC3)nn(C)c2n1 (centres unmarked) [compound 952] | 10
CCC(CC)Oc1ccc2c(NC(=O)CC3CCNCC3)nn(C)c2n1 [compound 953] | 6.4
Cn1nc(C(=O)NC2CCNCC2)c2ccc(Oc3ccccc3)nc21 [compound 955] | 3.4
CCC(CC)Oc1ccc2c(NC(=O)C3CCNCC3)nn(C)c2n1 [compound 962] | 4.4
Cn1nc(C(=O)NC2CCNCC2)c2ccc(OCc3ccccc3-c3ccccc3)nc21 [compound 969] | 1.3

Structure (SMILES) | EC50 [µM]
Cn1nc(C(=O)NC2CCN(Cc3cccc(-c4ccccc4)c3)CC2)c2ccc(OCc3cccc(-c4ccccc4)c3)nc21 [compound 970] | 8.9
Cn1nc(C(=O)NC2CCN(Cc3ccc(-c4ccccc4)cc3)CC2)c2ccc(O)nc21 [compound 972] | 3.7
Cn1nc(C(=O)NC2CCN(Cc3ccc(-c4ccccc4)cc3)CC2)c2ccc(OCc3ccc(-c4ccccc4)cc3)nc21 [compound 973] | 5.4
Cn1nc(C(=O)NC2CCNCC2)c2ccc(OCc3ccc(-c4ccccc4)cc3)nc21 [compound 974] | 4.5
Cn1nc(CNC2CCNCC2)c2ccc(N3CCCCCC3)nc21 [compound 976] | 4.7
Cn1nc(C(=O)N[C@@H]2C[C@H]3CC[C@@H](C2)N3)c2ccc(N3CCCCCC3)nc21 [compound 979] | 4.9
Cn1nc(C(=O)N[C@H]2C[C@H]3CC[C@@H](C2)N3)c2ccc(N3CCCCCC3)nc21 [compound 984] | 2.2
Cn1nc(COCC2CCNCC2)c2ccc(N3CCCCCC3)nc21 [compound 985] | 7.6
Cn1nc(COCC2CCCNC2)c2ccc(N3CCCCCC3)nc21 (centres unmarked) [compound 986] | 7.9
O=C(NC1CCNCC1)c1nn(S(=O)(=O)C2CCCCC2)c2nc(N3CCCCCC3)ccc12 [compound 988] | 5.4
Cn1nc(C(=O)NC2CCNCC2)c2cc(NC3CCCCC3)cnc21 [compound 991] | 9
Cn1nc(C(=O)NC2CCNCC2)c2ccc(N3CCCC(c4ccccc4)CC3)nc21 (centres unmarked) [compound 1026] | 1.6
Cn1nc(C(=O)NC2CCN(C(=O)C3CCCCC3)CC2)c2ccc(N3CCCCCC3)nc21 [compound 1030] | 4.8
Cn1nc(C(=O)NC2CCN(CCCC3CCCCC3)CC2)c2ccc(N3CCCCCC3)nc21 [compound 1031] | 0.69
Cn1nc(NC(=O)C2CCNCC2)c2ccc(N3CCCCCC3)nc21 [compound 1035] | 5.7
Cn1nc(NC(=O)C2CCCNC2)c2ccc(N3CCCCCC3)nc21 (centres unmarked) [compound 1036] | 8.7
Cn1nc(C(=O)NC2CCN(Cc3ccccc3Cl)CC2)c2ccc(N3CCCCCC3)nc21 [compound 1037] | 3.4
Cn1nc(C(=O)NC2CCN(Cc3cccc(Cl)c3)CC2)c2ccc(N3CCCCCC3)nc21 [compound 1038] | 3.4
Cn1nc(C(=O)NC2CCN(C3CCCC3)CC2)c2ccc(N3CCCCCC3)nc21 [compound 1040] | 2.8
Cn1nc(C(=O)NC2CCN(CCCN3CCCCC3)CC2)c2ccc(N3CCCCCC3)nc21 [compound 1041] | 1.1

Same assay, conditions: Table 1; Huh7 HCV 1b replicon, luciferase reporter, 48 hours; read-out: 1b EC50

Structure (SMILES) | EC50 [µM]
Cn1nc(C(=O)NC2CC3CCCC(C2)N3)c2ccc(N3CCCCCC3)nc21 (centres unmarked) [compound 880] | 8.1
Cn1nc(C(=O)NC2CCNCC2)c2ccc(OC3CCCCC3)nc21 [compound 913] | 4.7
CCC(CC)Oc1ccc2c(NC(=O)c3ccc(C)s3)nn(C)c2n1 [compound 956] | 21
CCC(CC)Oc1ccc2c(NC(=O)c3ccc(C)s3)nn(C)c2n1 [compound 963] | 2.7
Cc1ccc(CN2CCC(NC(=O)c3nn(C)c4nc(N5CCCCCC5)ccc34)CC2)cc1 [compound 1039] | 2.6
